# Reference: PubChem BioAssay AID270 (DTP/NCI, 2004)
# Several values for one entry are separate records, joined by “and”; a condition that tells them apart may be missing. Equal values may be shown once. Inconclusive results are not listed.
# System: BDF1 mice, s.c. Lewis lung carcinoma, T/C %
# Test: NCI In Vivo Anticancer Drug Screen. Data for tumor model Lewis Lung Carcinoma (subcutaneous) in B6D2F1 (BDF1) mice
# How it was run: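 Readout: survival or tumor size, expressed as treated (T) over vehicle control (C). Transplantable tumor implanted in mice; compound given to the treated group.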
# [1] = endpoint: median survival time, dose: 1.0 mg/kg/injection, schedule: Q01DX009 (ip), vehicle: saline, higher = longer survival
# [2] = endpoint: median survival time, dose: 2.0 mg/kg/injection, schedule: Q01DX009 (ip), vehicle: saline, higher = longer survival
# [3] = endpoint: median survival time, dose: 4.0 mg/kg/injection, schedule: Q01DX009 (ip), vehicle: saline, higher = longer survival
# [4] = endpoint: median survival time, dose: 8.0 mg/kg/injection, schedule: Q01DX009 (ip), vehicle: saline, higher = longer survival
smiles,measurement,setting,value
O=C1c2ccccc2C(=O)c2c(NCCNCCO)ccc(NCCNCCO)c21,T/C,"endpoint: median survival time, dose: 0.25 mg/kg/injection, schedule: Q01DX009 (ip), vehicle: Klucel (hydroxypropylcellulose) (HPC), higher = longer survival",120 % of control
same,T/C,"endpoint: median survival time, dose: 0.25 mg/kg/injection, schedule: Q01DX009 (ip), vehicle: water, higher = longer survival",106 % of control
same,T/C,"endpoint: median survival time, dose: 0.5 mg/kg/injection, schedule: Q01DX009 (ip), vehicle: Klucel (hydroxypropylcellulose) (HPC), higher = longer survival",123 % of control
same,T/C,"endpoint: median survival time, dose: 0.5 mg/kg/injection, schedule: Q01DX009 (ip), vehicle: saline with Tween-80, higher = longer survival",86 % of control
same,T/C,"endpoint: median survival time, dose: 0.5 mg/kg/injection, schedule: Q01DX009 (ip), vehicle: saline, higher = longer survival",114 % of control
same,T/C,"endpoint: median survival time, dose: 0.5 mg/kg/injection, schedule: Q01DX009 (ip), vehicle: water, higher = longer survival",109 % of control
same,T/C,"endpoint: median survival time, dose: 1.0 mg/kg/injection, schedule: Q01DX009 (ip), vehicle: Klucel (hydroxypropylcellulose) (HPC), higher = longer survival",101 % of control
same,T/C,"endpoint: median survival time, dose: 1.0 mg/kg/injection, schedule: Q01DX009 (ip), vehicle: saline with Tween-80, higher = longer survival",115 % of control
same,T/C,[1],92 % of control and 94 % of control and 108 % of control
same,T/C,"endpoint: median survival time, dose: 1.0 mg/kg/injection, schedule: Q01DX009 (ip), vehicle: water, higher = longer survival",89 % of control
same,T/C,"endpoint: median survival time, dose: 2.0 mg/kg/injection, schedule: Q01DX009 (ip), vehicle: Klucel (hydroxypropylcellulose) (HPC), higher = longer survival",89 % of control
same,T/C,"endpoint: median survival time, dose: 2.0 mg/kg/injection, schedule: Q01DX009 (ip), vehicle: acid diluted with saline, higher = longer survival",89 % of control
same,T/C,"endpoint: median survival time, dose: 2.0 mg/kg/injection, schedule: Q01DX009 (ip), vehicle: saline with Tween-80, higher = longer survival",95 % of control
same,T/C,[2],102 % of control
same,T/C,"endpoint: median survival time, dose: 2.0 mg/kg/injection, schedule: Q01DX009 (ip), vehicle: water, higher = longer survival",96 % of control and 115 % of control
same,T/C,"endpoint: median survival time, dose: 4.0 mg/kg/injection, schedule: Q01DX009 (ip), vehicle: acid diluted with saline, higher = longer survival",95 % of control
same,T/C,"endpoint: median survival time, dose: 4.0 mg/kg/injection, schedule: Q01DX009 (ip), vehicle: other, higher = longer survival",106 % of control
same,T/C,[3],91 % of control
same,T/C,"endpoint: median survival time, dose: 4.0 mg/kg/injection, schedule: Q01DX009 (ip), vehicle: water, higher = longer survival",88 % of control and 105 % of control
same,T/C,"endpoint: median survival time, dose: 8.0 mg/kg/injection, schedule: Q01DX009 (ip), vehicle: Klucel (hydroxypropylcellulose) (HPC), higher = longer survival",109 % of control and 120 % of control
same,T/C,"endpoint: median survival time, dose: 8.0 mg/kg/injection, schedule: Q01DX009 (ip), vehicle: acid diluted with saline, higher = longer survival",90 % of control
same,T/C,"endpoint: median survival time, dose: 8.0 mg/kg/injection, schedule: Q01DX009 (ip), vehicle: other, higher = longer survival",103 % of control
same,T/C,[4],95 % of control
same,T/C,"endpoint: median survival time, dose: 8.0 mg/kg/injection, schedule: Q01DX009 (ip), vehicle: water, higher = longer survival",88 % of control
same,T/C,"endpoint: median survival time, dose: 10.0 mg/kg/injection, schedule: Q## X004 (ip), vehicle: saline, higher = longer survival",97 % of control
same,T/C,"endpoint: median survival time, dose: 16.0 mg/kg/injection, schedule: Q01DX009 (ip), vehicle: Klucel (hydroxypropylcellulose) (HPC), higher = longer survival",107 % of control
same,T/C,"endpoint: median survival time, dose: 16.0 mg/kg/injection, schedule: Q01DX009 (ip), vehicle: acid diluted with saline, higher = longer survival",100 % of control
same,T/C,"endpoint: median survival time, dose: 16.0 mg/kg/injection, schedule: Q01DX009 (ip), vehicle: saline, higher = longer survival",99 % of control
same,T/C,"endpoint: median survival time, dose: 16.0 mg/kg/injection, schedule: Q01DX009 (ip), vehicle: water, higher = longer survival",102 % of control
same,T/C,"endpoint: median survival time, dose: 20.0 mg/kg/injection, schedule: Q## X004 (ip), vehicle: saline, higher = longer survival",93 % of control
same,T/C,"endpoint: median survival time, dose: 40.0 mg/kg/injection, schedule: Q## X004 (ip), vehicle: saline, higher = longer survival",93 % of control
Cc1cn(C2OC(CO)C(O)C2O)c(=O)[nH]c1=O (stereo not drawn),T/C,"endpoint: mean tumor weight, dose: 62.5 mg/kg/injection, schedule: Q01DX011 (ip), vehicle: saline, higher = larger tumour",94 % of control
same,T/C,"endpoint: mean tumor weight, dose: 500.0 mg/kg/injection, schedule: Q01DX011 (ip), vehicle: saline, higher = larger tumour",109 % of control
CC(=O)OC1CC(OC2C(O)CC(OC3C(O)CC(OC4CCC5(C)C(CCC6C5CCC5(C)C(C7=CC(=O)OC7)CCC65O)C4)OC3C)OC2C)OC(C)C1OC1OC(CO)C(O)C(O)C1O (stereo not drawn),T/C,"endpoint: mean tumor weight, dose: 1.2 mg/kg/injection, schedule: Q01DX011 (ip), vehicle: carboxymethylcellulose (CMC), higher = larger tumour",55 % of control
same,T/C,"endpoint: mean tumor weight, dose: 2.5 mg/kg/injection, schedule: Q01DX011 (ip), vehicle: carboxymethylcellulose (CMC), higher = larger tumour",60 % of control
same,T/C,"endpoint: mean tumor weight, dose: 5.0 mg/kg/injection, schedule: Q01DX011 (ip), vehicle: carboxymethylcellulose (CMC), higher = larger tumour",32 % of control
S=c1nc[nH]c2nc[nH]c12,T/C,"endpoint: mean tumor weight, dose: 5.0 mg/kg/injection, schedule: Q01DX011 (ip), vehicle: alkali diluted with saline, higher = larger tumour",58 % of control
same,T/C,"endpoint: mean tumor weight, dose: 10.0 mg/kg/injection, schedule: Q01DX011 (ip), vehicle: alkali diluted with saline, higher = larger tumour",60 % of control
same,T/C,"endpoint: mean tumor weight, dose: 12.5 mg/kg/injection, schedule: Q01DX011 (ip), vehicle: alkali diluted with saline, higher = larger tumour",62 % of control
same,T/C,"endpoint: mean tumor weight, dose: 20.0 mg/kg/injection, schedule: Q01DX011 (ip), vehicle: alkali diluted with saline, higher = larger tumour",51 % of control
same,T/C,"endpoint: mean tumor weight, dose: 25.0 mg/kg/injection, schedule: Q01DX011 (ip), vehicle: alkali diluted with saline, higher = larger tumour",66 % of control
same,T/C,"endpoint: mean tumor weight, dose: 50.0 mg/kg/injection, schedule: Q01DX011 (ip), vehicle: alkali diluted with saline, higher = larger tumour",62 % of control
same,T/C,"endpoint: median survival time, dose: 0.3 mg/kg/injection, schedule: Q01DX000 (ip), vehicle: alkali diluted with saline, higher = longer survival",106 % of control
same,T/C,[1],106 % of control
same,T/C,[2],121 % of control
same,T/C,"endpoint: median survival time, dose: 3.0 mg/kg/injection, schedule: Q01DX000 (ip), vehicle: alkali diluted with saline, higher = longer survival",101 % of control
same,T/C,[3],117 % of control
same,T/C,[4],121 % of control
same,T/C,"endpoint: median survival time, dose: 10.0 mg/kg/injection, schedule: Q01DX011 (ip), vehicle: alkali diluted with saline, higher = longer survival",98 % of control
same,T/C,"endpoint: median survival time, dose: 15.0 mg/kg/injection, schedule: Q01DX009 (ip), vehicle: saline with Tween-80, higher = longer survival",108 % of control
same,T/C,"endpoint: median survival time, dose: 20.0 mg/kg/injection, schedule: Q01DX011 (ip), vehicle: alkali diluted with saline, higher = longer survival",91 % of control
same,T/C,"endpoint: median survival time, dose: 30.0 mg/kg/injection, schedule: Q01DX000 (ip), vehicle: alkali diluted with saline, higher = longer survival",97 % of control
same,T/C,"endpoint: median survival time, dose: 30.0 mg/kg/injection, schedule: Q01DX009 (ip), vehicle: Klucel (hydroxypropylcellulose) (HPC), higher = longer survival",104 % of control
same,T/C,"endpoint: median survival time, dose: 40.0 mg/kg/injection, schedule: Q01DX011 (ip), vehicle: alkali diluted with saline, higher = longer survival",89 % of control
same,T/C,"endpoint: median tumor weight (est.), dose: 15.0 mg/kg/injection, schedule: Q01DX009 (ip), vehicle: saline with Tween-80, higher = larger tumour",79 % of control
same,T/C,"endpoint: median tumor weight (est.), dose: 30.0 mg/kg/injection, schedule: Q01DX009 (ip), vehicle: saline with Tween-80, higher = larger tumour",72 % of control
same,T/C,"endpoint: median tumor weight (est.), dose: 35.0 mg/kg/injection, schedule: Q01DX011 (ip), vehicle: alkali diluted with saline, higher = larger tumour",44 % of control
same,T/C,"endpoint: median tumor weight (est.), dose: 51.0 mg/kg/injection, schedule: Q01DX011 (ip), vehicle: alkali diluted with saline, higher = larger tumour",38 % of control
same,T/C,"endpoint: median tumor weight (est.), dose: 80.0 mg/kg/injection, schedule: Q01DX011 (ip), vehicle: alkali diluted with saline, higher = larger tumour",70 % of control and 75 % of control and 93 % of control
Cc1ccc(NC(=O)c2ccccc2)cc1[As]=[As]c1cc(NC(=O)c2ccccc2)ccc1C (stereo not drawn),T/C,"endpoint: median survival time, dose: 0.63 mg/kg/injection, schedule: Q01DX009 (ip), vehicle: Klucel (hydroxypropylcellulose) (HPC), higher = longer survival",100 % of control
same,T/C,"endpoint: median survival time, dose: 1.25 mg/kg/injection, schedule: Q01DX009 (ip), vehicle: Klucel (hydroxypropylcellulose) (HPC), higher = longer survival",100 % of control
Nc1nc2c(ncn2C2OC(CO)C(O)C2N)c(=O)[nH]1 (stereo not drawn),T/C,"endpoint: median survival time, dose: 1.56 mg/kg/injection, schedule: Q01DX009 (ip), vehicle: saline, higher = longer survival",95 % of control
same,T/C,"endpoint: median survival time, dose: 3.12 mg/kg/injection, schedule: Q01DX009 (ip), vehicle: Klucel (hydroxypropylcellulose) (HPC), higher = longer survival",99 % of control
same,T/C,"endpoint: median survival time, dose: 3.13 mg/kg/injection, schedule: Q01DX009 (ip), vehicle: saline, higher = longer survival",91 % of control and 104 % of control
same,T/C,"endpoint: median survival time, dose: 6.25 mg/kg/injection, schedule: Q01DX009 (ip), vehicle: Klucel (hydroxypropylcellulose) (HPC), higher = longer survival",102 % of control
same,T/C,"endpoint: median survival time, dose: 6.25 mg/kg/injection, schedule: Q01DX009 (ip), vehicle: saline, higher = longer survival",97 % of control
same,T/C,"endpoint: median survival time, dose: 12.5 mg/kg/injection, schedule: Q01DX009 (ip), vehicle: Klucel (hydroxypropylcellulose) (HPC), higher = longer survival",102 % of control
same,T/C,"endpoint: median survival time, dose: 12.5 mg/kg/injection, schedule: Q01DX009 (ip), vehicle: saline with Tween-80, higher = longer survival",95 % of control
same,T/C,"endpoint: median survival time, dose: 12.5 mg/kg/injection, schedule: Q01DX009 (ip), vehicle: saline, higher = longer survival",98 % of control
same,T/C,"endpoint: median survival time, dose: 25.0 mg/kg/injection, schedule: Q01DX009 (ip), vehicle: Klucel (hydroxypropylcellulose) (HPC), higher = longer survival",90 % of control
same,T/C,"endpoint: median survival time, dose: 25.0 mg/kg/injection, schedule: Q01DX009 (ip), vehicle: saline with Tween-80, higher = longer survival",118 % of control
same,T/C,"endpoint: median survival time, dose: 25.0 mg/kg/injection, schedule: Q01DX009 (ip), vehicle: saline, higher = longer survival",94 % of control
same,T/C,"endpoint: median survival time, dose: 50.0 mg/kg/injection, schedule: Q01DX009 (ip), vehicle: saline with Tween-80, higher = longer survival",110 % of control
